# Patent US20050069907A1, “Methods for using double-mutant RNA polymerases with reduced discrimination between non-canonical and canonical nucleoside triphosphates” (priority 2002, published 2005)
# Columns and labels:
# RNA as a template = conditions: cited from earlier work
# HindIII-cut pT75 = experiment: Run-off transcription with 2′-OMe- or 2′-azido-NTPs on HindIII-cut pT75; type: biochemical
# Experimental: (§1) RNAPs were prepared as described (Brieba, L G, and Sousa, R. Biochemistry, 39: 919-923, 2000). Transcription reactions were carried out for 30 min. at room temperature in 40 mM Tris-Cl, pH 8.0, 6 mM MgCl2, 10 mM NaCl, 2 mM spermidine, with templates at 10^−7 M and RNAPs at 2×10^−7 M. All NTPs were used at 0.5 mM, and transcripts were labeled by inclusion of 1% v/v 800 Ci/mM […] in the reaction. Modified NTPs were from Trilink Biotechnologies. Reactions were stopped by addition of an equal volume of 90% formamide, 50 mM EDTA, 0.01% xylene cyanol, resolved by electrophoresis in 20% acrylamide, 1% bis-acrylamide, 1×TBE gels, and visualized on a Molecular Dynamics Phosphorimager.
# With the pPK5 template, UMP and CMP are not incorporated into the first 9 nt of RNA. Incorporation of non-canonical NMPs during synthesis of the first 9 nt of RNA is expected to cause greater reductions in run-off transcript synthesis because the RNA is readily released from the transcription complex during this initial phase of transcription. Therefore, if incorporation of a non-canonical NMP is slow, the RNA will usually dissociate before the NMP is incorporated. […] To see whether NMPs with bulky 2′-substituents could be incorporated during the initial phase of transcription a Hind-III linearized pT75 (Tabor, S. and Richardson, C. C., “A bacteriophage T7 RNA polymerase/promoter system for controlled exclusive expression of specific genes,” Proc. Natl. Acad. Sci. USA 82:1074-1078, 1985) was used. On this template, UMP is first incorporated at +14 while CMP is incorporated at +6 and +7. In reactions with 2′-OMe-UTP run-off transcript synthesis is reduced 11-fold, 5-fold, and <2-fold with the wild-type, and the Y639F, and Y639F/H784A mutants, respectively (FIG. 2c; lanes 2, 6, 10). However, in reactions with 2′-OMe-CTP run-off transcription is undetectable with the wild-type or Y639F enzymes (FIG. 2c; lanes 3, 4, 7, 8), and is reduced ˜700-fold with Y639F/H784A (FIG. 2c; lanes 11, 12).
# Run-off transcript yields in reactions with HindIII-cut pT75 and 2′-azido-UTP are reduced 18-, 8.5-, and <2-fold with wild-type and Y639F and Y639F/H784 mutants, respectively (FIG. 2d; lanes 2, 6, 10), relative to reactions with 4 NTPs (FIG. 2d; lanes 1, 5, 9). In reactions with 2′-azido-CTP, or both 2′-azido-CTP and 2′-azido-UTP, run-off transcription is undetectable with the wild-type enzyme (FIG. 2d; lanes 3, 4), is reduced 65-fold with Y639F (FIG. 2d; lanes 7, 8), but is reduced only 7-fold with Y639F/H784A (FIG. 2d; lanes 11, 12).
# T7 Control Template = experiment: Incorporation of Cy5-UTP or Cy5-dCTP into transcripts (A650/A260); type: biochemical; conditions: FluoroLink Cy5-UTP or Cy5-dCTP in addition to UTP or CTP
# Experimental: In separate experiments to evaluate the ability of the Y639F/H784A double mutant versus the Y639F single mutant of T7 RNAP to incorporate nucleoside triphosphates with substituents at other positions than the 2′-position of the sugar, in vitro transcription reactions are carried out with each mutant enzyme using a T7 Control Template from an AmpliScribe™ T7 High Yield Transcription Kit (EPICENTRE) and either FluoroLink™ Cy5-UTP or FluoroLink™ Cy5-dCTP (both from Amersham Biosciences) in the reaction mixture in addition to the corresponding canonical nucleotide, UTP or CTP. Following transcription, the product is precipitated with ammonium acetate and the relative amount of Cy5 dye in the transcripts are determined based on the A650/A260 absorption ratios.
# Bgl II-cut pPK5 = experiment: Run-off transcription with 2′-OMe- or 2′-azido-NTPs on Bgl II-cut pPK5; type: biochemical
# Experimental: as §1
# The ability of the wild-type, Y639F and Y639F/H784A mutants to utilize 2′-OMe-UTP and 2′-OMe-CTP, and 2′-azido-UTP and 2′-azido-CTP in RNA synthesis was tested. On a Bgl II-cut pPK5 (Mentesanas, P. E., et al., “Characterization of Bacteriophage T7 RNA Polymerase Elongation Complexes,” J. Mol. Biol. 302:1049-1062, 2000) template in which CTP and UTP are first incorporated at +14 and +15, respectively, the wild-type enzyme can synthesize 34 nucleotide (nt) run-off transcripts in reactions in which UTP is replaced with 2′-OMe-UTP (FIG. 2a, lane 2) or in reactions in which CTP is replaced with 2′-OMe-CTP (FIG. 2a, lane 3). Relative to the reaction with 4 NTPs (FIG. 2a, lane 1), yields of run-off transcripts are reduced 6-fold and 21-fold in the 2′-OMe-UTP and 2′-OMe-CTP reactions, respectively. When both UTP and CTP are replaced with the corresponding 2′-OMe-NTPs, run-off transcription with the wild-type enzyme is undetectable (FIG. 2a, lane 4). Terminated transcripts are seen in these reactions at positions where 2′-OMe-UMP or 2′-OMe-CMP are incorporated (FIG. 2a, lanes 2-4). The Y639F mutation enhances utilization of the 2′-OMe-NTPs: relative to reactions with 4 NTPs (FIG. 2a, lane 5) runoff transcription with Y639F is reduced, respectively: 2-fold, 8-fold, and 55-fold in reactions with 2′-OMe-UTP, 2′-OMe-CTP, or both (FIG. 2a, lanes 6-8). With the Y639F/H784A double mutant the reduction in run-off transcript synthesis is <15% in reactions with 2′-OMe-UTP (FIG. 2a, lane 10), and only 3-fold and 6-fold in reactions with, respectively, 2′-OMe-CTP or both 2′-OMe-UTP and 2′-OMe-CTP (FIG. 2a, lanes 11, 12).
# Identical experiments were carried out with 2′-azido-UTP or 2′-azido-CTP replacing UTP or CTP, respectively (FIG. 2b). With the wild-type enzyme, run-off transcription was reduced 15- and 50-fold in reactions with 2′-azido-UTP or 2′-azido-CTP, respectively (FIG. 2b; lanes 2, 3), and was undetectable in reactions with both 2′-azido-UTP and 2′-azido-CTP (FIG. 2b; lane 4). With Y639F, use of 2′-azido-UTP or 2′-azido-CTP reduced run-off transcription by 70% (FIG. 2b; lanes 6, 7) compared to reactions with 4 NTPs (FIG. 2b; lane 5), while use of both 2′-azido-UTP and 2′-azido-CTP reduced runoff transcription by 11-fold (FIG. 2b, lane 8). With Y639F/H784A use of a single azido-modified NTP reduced run-off transcription by only 40% (FIG. 2b; lanes 10, 11), while use of two 2′-azido-NTPs reduced it by 3-fold (FIG. 2b; lane 12).
# [1] = even in Mn^2+ buffer; cited from earlier work
molecule,measurement,setting,value
E. coli DNA-directed DNA polymerase I: E. coli DNA polymerase I,Increase in dNTP Km,RNA as a template,~100 fold
Y639F/H784A: Y639F/H784A double mutant of T7 RNAP,Reduction of run-off transcription,HindIII-cut pT75; 2′-OMe-CTP,~700 fold
same,Reduction of run-off transcript synthesis,HindIII-cut pT75; 2′-OMe-UTP,< 2 fold
same,Reduction of run-off transcription,"HindIII-cut pT75; 2′-azido-CTP, or both 2′-azido-CTP and 2′-azido-UTP",7 fold
same,Reduction of run-off transcript yields relative to 4 NTPs,HindIII-cut pT75; 2′-azido-UTP,< 2 fold
same,A650/A260 absorption ratio of transcription products compared to Y639F single mutant,T7 Control Template,significantly higher
same,Reduction of run-off transcript yield relative to 4 NTPs,Bgl II-cut pPK5; 2′-OMe-CTP replacing CTP,3 fold
same,Reduction in run-off transcript synthesis,Bgl II-cut pPK5; 2′-OMe-UTP replacing UTP,< 15%
same,Reduction of run-off transcript yield relative to 4 NTPs,Bgl II-cut pPK5; both 2′-OMe-UTP and 2′-OMe-CTP,6 fold
same,Reduction of run-off transcription,Bgl II-cut pPK5; both 2′-azido-UTP and 2′-azido-CTP,3 fold
same,Reduction of run-off transcription,Bgl II-cut pPK5; single azido-modified NTP (2′-azido-UTP or 2′-azido-CTP),40%
"T7 DNAP: T7 DNA polymerase (protein, UniProt P00581 1-704, looked up) DNA-directed DNA polymerase: MIVSDIEANALLESVTKFHCGVIYDYSTAEYVSYRPSDFGAYLDALEAEVARGGLIVFHNGHKYDVPALTKLAKLQLNREFHLPRENCIDTLVLSRLIHSNLKDTDMGLLRSGKLPGKRFGSHALEAWGYRLGEMKGEYKDDFKRMLEEQGEEYVDGMEWWNFNEEMMDYNVQDVVVTKALLEKLLSDKHYFPPEIDFTDVGYTTFWSESLEAVDIEHRAAWLLAKQERNGFPFDTKAIEELYVELAARRSELLRKLTETFGSWYQPKGGTEMFCHPRTGKPLPKYPRIKTPKVGGIFKKPKNKAQREGREPCELDTREYVAGAPYTPVEHVVFNPSSRDHIQKKLQEAGWVPTKYTDKGAPVVDDEVLEGVRVDDPEKQAAIDLIKEYLMIQKRIGQSAEGDKAWLRYVAEDGKIHGSVNPNGAVTGRATHAFPNLAQIPGVRSPYGEQCRAAFGAEHHLDGITGKPWVQAGIDASGLELRCLAHFMARFDNGEYAHEILNGDIHTKNQIAAELPTRDNAKTFIYGFLYGAGDEKIGQIVGAGKERGKELKKKFLENTPAIAALRESIQQTLVESSQWVAGEQQVKWKRRWIKGLDGRKVHVRSPHAALNTLLQSAGALICKLWIIKTEEMLVEKGLKHGWDGDFAYMAWVHDEIQVGCRTEEIAQVVIETAQEAMRWVGDHWNFRCLLDTEGKMGPNWAICH",Selectivity for dNTPs over rNTPs,[1],"at least 2,000 fold"
